The NIST ThermoML archive (doi:10.1016/j.jct.2017.07.008)
“And” between values parts separate entries of the source, which are not always exact repeats. Equal values may be shown once.

Conditions: for mass density / viscosity / speed of sound / vapor or sublimation pressure: Liquid; for mass density: Vibrating tube method; for surface tension liquid-gas: Drop volume; for viscosity: Capillary tube (Ostwald / Ubbelohde) method; for speed of sound: Frequency=3 MHz, Single path-length method; for vapor or sublimation pressure: Ebulliometric method (Recirculating still)

OCc1cccs1 [2-thiophenemethanol]
Conditions	mass density	speed of sound [m/s]	viscosity [mPa·s]
313.15 K, 55000 kPa	1216.51 kg/m3	–	–
313.15 K, 60000 kPa	1218.68 kg/m3	–	–
313.15 K, 65000 kPa	1220.8 kg/m3	–	–
315.65 K, 100 kPa	1186.63 kg/m3	1450.4	4.147
318.15 K, 100 kPa	1184.39 kg/m3	1443.2	3.87
318.15 K, 2000 kPa	1185.52 kg/m3	–	–
318.15 K, 5000 kPa	1187.27 kg/m3	–	–
318.15 K, 7000 kPa	1188.42 kg/m3	–	–
318.15 K, 10000 kPa	1190.12 kg/m3	–	–
318.15 K, 15000 kPa	1192.88 kg/m3	–	–
318.15 K, 20000 kPa	1195.57 kg/m3	–	–
318.15 K, 25000 kPa	1198.18 kg/m3	–	–
318.15 K, 30000 kPa	1200.72 kg/m3	–	–
318.15 K, 35000 kPa	1203.2 kg/m3	–	–
318.15 K, 40000 kPa	1205.62 kg/m3	–	–
318.15 K, 45000 kPa	1207.98 kg/m3	–	–
318.15 K, 50000 kPa	1210.29 kg/m3	–	–
318.15 K, 55000 kPa	1212.54 kg/m3	–	–
318.15 K, 60000 kPa	1214.74 kg/m3	–	–
318.15 K, 65000 kPa	1216.9 kg/m3	–	–
320.65 K, 100 kPa	1182.14 kg/m3	1436	3.615
323.15 K, 100 kPa	1179.88 kg/m3	1428.8	3.355
323.15 K, 2000 kPa	1181.03 kg/m3	–	–
323.15 K, 5000 kPa	1182.82 kg/m3	–	–
323.15 K, 7000 kPa	1183.99 kg/m3	–	–
323.15 K, 10000 kPa	1185.73 kg/m3	–	–
323.15 K, 15000 kPa	1188.55 kg/m3	–	–
323.15 K, 20000 kPa	1191.29 kg/m3	–	–
323.15 K, 25000 kPa	1193.95 kg/m3	–	–
323.15 K, 30000 kPa	1196.55 kg/m3	–	–
323.15 K, 35000 kPa	1199.07 kg/m3	–	–
323.15 K, 40000 kPa	1201.53 kg/m3	–	–
323.15 K, 45000 kPa	1203.93 kg/m3	–	–
323.15 K, 50000 kPa	1206.28 kg/m3	–	–
323.15 K, 55000 kPa	1208.56 kg/m3	–	–
323.15 K, 60000 kPa	1210.8 kg/m3	–	–
323.15 K, 65000 kPa	1212.99 kg/m3	–	–
325.65 K, 100 kPa	1177.63 kg/m3	1421.6	3.17
328.15 K, 100 kPa	1175.35 kg/m3 and 1175.36 kg/m3	1414.5	2.957
328.15 K, 2000 kPa	1176.53 kg/m3	–	–
328.15 K, 5000 kPa	1178.35 kg/m3	–	–
328.15 K, 7000 kPa	1179.55 kg/m3	–	–
328.15 K, 10000 kPa	1181.33 kg/m3	–	–
328.15 K, 15000 kPa	1184.21 kg/m3	–	–
328.15 K, 20000 kPa	1187 kg/m3	–	–
328.15 K, 25000 kPa	1189.72 kg/m3	–	–
328.15 K, 30000 kPa	1192.36 kg/m3	–	–
328.15 K, 35000 kPa	1194.93 kg/m3	–	–
328.15 K, 40000 kPa	1197.44 kg/m3	–	–
328.15 K, 45000 kPa	1199.88 kg/m3	–	–
328.15 K, 50000 kPa	1202.26 kg/m3	–	–
328.15 K, 55000 kPa	1204.58 kg/m3	–	–
328.15 K, 60000 kPa	1206.86 kg/m3	–	–
328.15 K, 65000 kPa	1209.08 kg/m3	–	–
330.65 K, 100 kPa	1173.09 kg/m3	1407.3	2.785
333.15 K, 100 kPa	1170.8 kg/m3 and 1170.82 kg/m3	1400.1	2.628
333.15 K, 2000 kPa	1172 kg/m3	–	–
333.15 K, 5000 kPa	1173.87 kg/m3	–	–
333.15 K, 7000 kPa	1175.1 kg/m3	–	–
333.15 K, 10000 kPa	1176.91 kg/m3	–	–
333.15 K, 15000 kPa	1179.85 kg/m3	–	–
333.15 K, 20000 kPa	1182.7 kg/m3	–	–
333.15 K, 25000 kPa	1185.47 kg/m3	–	–
333.15 K, 30000 kPa	1188.16 kg/m3	–	–
333.15 K, 35000 kPa	1190.78 kg/m3	–	–
333.15 K, 40000 kPa	1193.33 kg/m3	–	–
333.15 K, 45000 kPa	1195.82 kg/m3	–	–
333.15 K, 50000 kPa	1198.24 kg/m3	–	–
333.15 K, 55000 kPa	1200.6 kg/m3	–	–
333.15 K, 60000 kPa	1202.91 kg/m3	–	–
333.15 K, 65000 kPa	1205.17 kg/m3	–	–
335.65 K, 100 kPa	1168.53 kg/m3	1392.9	2.486
338.15 K, 100 kPa	1166.23 kg/m3 and 1166.25 kg/m3	1385.8	2.372
338.15 K, 2000 kPa	1167.46 kg/m3	–	–
338.15 K, 5000 kPa	1169.37 kg/m3	–	–
338.15 K, 7000 kPa	1170.63 kg/m3	–	–
338.15 K, 10000 kPa	1172.48 kg/m3	–	–
338.15 K, 15000 kPa	1175.48 kg/m3	–	–
338.15 K, 20000 kPa	1178.39 kg/m3	–	–
338.15 K, 25000 kPa	1181.22 kg/m3	–	–
338.15 K, 30000 kPa	1183.96 kg/m3	–	–
338.15 K, 35000 kPa	1186.63 kg/m3	–	–
338.15 K, 40000 kPa	1189.22 kg/m3	–	–
338.15 K, 45000 kPa	1191.75 kg/m3	–	–
338.15 K, 50000 kPa	1194.21 kg/m3	–	–
338.15 K, 55000 kPa	1196.62 kg/m3	–	–
338.15 K, 60000 kPa	1198.96 kg/m3	–	–
338.15 K, 65000 kPa	1201.25 kg/m3	–	–

Conditions	surface tension liquid-gas [mN/m]	vapor or sublimation pressure [kPa]
315.65 K	41.73	–
318.15 K	41.48	–
320.65 K	41.22	–
323.15 K	40.95	–
325.65 K	40.67	–
328.15 K	40.4	–
330.65 K	40.1	–
333.15 K	39.8	–
335.65 K	39.51	–
338.15 K	39.24	–
351.15 K	–	0.545
354.25 K	–	0.665
357.17 K	–	0.785
361.3 K	–	1.025
365.19 K	–	1.275
366.38 K	–	1.355
367.49 K	–	1.415
368.14 K	–	1.475
369.77 K	–	1.61
372.56 K	–	1.88
373.21 K	–	1.96
377.74 K	–	2.44
382.13 K	–	3.06
386.07 K	–	3.675
387.56 K	–	3.93
388.56 K	–	4.15
391.84 K	–	4.77
393.87 K	–	5.25
397.94 K	–	6.25
399.72 K	–	6.8
402.41 K	–	7.6
404.37 K	–	8.25
406.56 K	–	9
408.27 K	–	9.665
411.5 K	–	10.96
415.06 K	–	12.6
416.56 K	–	13.38
418.63 K	–	14.47
420.23 K	–	15.36
422.21 K	–	16.51
424.64 K	–	18.05
426.07 K	–	19
428.27 K	–	20.52
429.37 K	–	21.34
431.17 K	–	22.77
432.56 K	–	23.88
433.65 K	–	24.78
